The values that follow are results of earlier work, collected in paper PMC9370779, “Traditional Medicinal Uses, Phytochemistry, Biological Properties, and Health Applications of Vitex sp” (Plants, 2022).

“Also recorded” adds a separate entry of the source. Like-named read-outs stand apart in the source and are kept apart here.

Data set [1] has as its system hepatocyte-derived carcinoma (HuH-7) cells. Details: method as in PMID 18595136.
Data set [2] concerns lipopolysaccharide-induced nitric oxide (NO) production. The arrangement: method as in doi:10.1002/hlca.201600022.
The conditions of data set [3]: read-out: antioxidant effects, IC50 value.
In another data set the test system is NO production. Details: method as in PMID 27535293. As to conditions: up to a concentration of 100 µM.
Details of data set [4]: method as in PMID 10579867.
The test system of data set [5] is NADP(H); quinone oxireductase type1 (QR1). The arrangement: method as in PMID 23662135.
For data set [6], the system named is human nasopharyngeal carcinoma (CNE1) cell line. Details: method as in PMID 28453270. As to conditions: read-out: cytotoxic activity against CNE1, IC50 value.
Another data set concerns Topoisomerase-1 (Top1). The arrangement: method as in PMID 28602939.
The next data set deals with HCT 116 cells. The arrangement: method as in PMID 28602939.
Details of data set [7]: method as in PMID 28602939. As to conditions: cell line not stated.
Data set [8] relates to nuclear factor-kappa B (NF-κB) pathway in human embryonic kidney (HEK 293) cells. Details: method as in PMID 29996686. As to conditions: TNF-α-induced.
Data set [9] has as its system NO production in LPS-induced murine macrophage (RAW 264.7) cells. Details: method as in PMID 29429059. The conditions noted are these: LPS-induced RAW 264.7 macrophages, up to 100 μM.
For data set [10], the system named is LPS-induced NO production. The arrangement: method as in PMID 31302252.
A further data set relates to COX-2. Details: method as in PMID 31302252.
Data set [11] has as its system inducible nitric oxide synthase (iNOS). The arrangement: method as in PMID 31302252.
The test system of a further data set is NF-κB signal pathways. The arrangement: method as in PMID 31302252.
The subject of a further data set is IL-6. Details: method as in PMID 31302252.
Data set [12] has as its system interleukin 1-beta (IL-1β). The arrangement: method as in PMID 31302252.
Another data set relates to Musca domestica larvae. Details: method as in doi:10.1016/S0031-9422(00)94985-9.
The next data set has as its system Musca. The arrangement: method as in PMID 12444704.
On the set-up of data set [13]: method as in PMID 24965780.
On the set-up of data set [14]: method as in PMID 27118321. The conditions noted are these: ABTS stated for 131.
The test system of data set [15] is LPS-induced NO production in murine microglia (BV-2) cells. Details: method as in PMID 27118321.
Data set [16] relates to LPS-induced NO production. The arrangement: method as in doi:10.1177/1934578X19848178. As to conditions: at lower doses/concentrations.
Details of data set [17]: method as in PMID 29343985. The conditions noted are these: mice, acetic acid abdomen constriction.
On the set-up of data set [18]: method as in PMID 29343985. The conditions noted are these: mice, carrageenan paw oedema. On the technique in general: In the carrageenan paw model, swelling and tenderness develop within hours.

For `C[C@]1(O)CC[C@@H]2C(C(=O)O)=CO[C@@H](O[C@@H]3O[C@H](CO)[C@@H](O)[C@H](O)[C@H]3OC(=O)c3ccc(O)cc3)[C@@H]21` [Compound 1, 2-p-hydroxybenzoyl mussaenosidic acid], the “protective effects against CCl4-induced toxicity in HuH-7 cells and oxidative stress” value in data set [1] is “Showed protective effects against CCl4-induced toxicity in HuH-7 cells and oxidative stress”. As to `O=C(OCC1=CC(=O)C2C=CO[C@@H](O[C@@H]3O[C@H](CO)[C@@H](O)[C@H](O)[C@H]3O)C12)c1ccc(O)cc1` (stereo partly drawn) [Compound 18, agnusoside], the “anti-inflammatory activity, LPS-induced NO production” value in data set [2] was “moderate anti-inflammatory activity; also recorded: Exhibited moderate anti-inflammatory activity using NO production induced by lipopolysaccharide”. Take `C=C1CC[C@@H]2C(C(=O)O)=CO[C@@H](O[C@@H]3O[C@H](COC(=O)c4ccc(O)cc4)[C@@H](O)[C@H](O)[C@H]3O)[C@H]12` [Compound 19, vitexnegheteroin K]: in the data set on α-glucosidase, the “inhibitory effects on α-glucosidase” value was “moderate inhibitory effects”. Also, the IC50 in data set [3] is above 20 µM. As to `C[C@@H]1CC[C@@H]2C(C(=O)O)=CO[C@@H](O[C@@H]3O[C@H](COC(=O)c4ccc(O)cc4)[C@@H](O)[C@H](O)[C@H]3O)[C@H]12` [Compound 20, vitexnegheteroin L], the “inhibitory effects on α-glucosidase” value in the data set with α-glucosidase was “moderate inhibitory effects”. For the same molecule, in [3], the IC50 is above 20 µM.

For the molecule `O=C(OCC1=C[C@@H](O)[C@@H]2C=CO[C@@H](O[C@@H]3O[C@H](COC(=O)c4ccc(O)cc4)[C@@H](O)[C@H](O)[C@H]3O)[C@H]12)c1ccc(O)cc1` [Compound 21, 10-p-hydroxybenzoyl-6β-hydroxyiridoid 1-O-β-D-(6′-O-p-hydroxybenzoyl)glucopyranoside], the “inhibition of NO production” value in the data set on NO production was “did not inhibit; also recorded: No inhibitory activity on NO production”. As for `COC1CC2(CCC3(O2)C(C)CC(OC(C)=O)C2C(C)(C)CCCC23C)C(OC)O1` (stereo not drawn) [Compound 32], in data set [4], the antioxidant activity entry is reported as “did not exhibit any activities”. Turning to `CC(=O)OC1CC(C)C(O)(CCC2=CC(=O)NC2)C2(C)CCCC(C)(C)C12` (stereo not drawn) [Compound 55, vitexlactam C], the QR1 induction activity entry in data set [5] is recorded as “moderate results; also recorded: Compound 55 showed moderate result on NADP(H); quinone oxireductase type1 (QR1) induction activity”.

Turning to `C[C@@H]1CC[C@H]2C(C)(C)CCC[C@]2(C)[C@@]1(O)CCc1cc[nH]c1C#N` [Compound 79, vitepyrroloid A], the IC50 in data set [6] was 8.7 µM.

For `C=CC(C)(O)CCC1(C)C2=C(CC(OCC)C1C)C(C)(C)CCC2` (stereo not drawn) [Compound 90], the “Top1 inhibition compared with camptothecin (CPT)” value in the data set with Topoisomerase-1 (Top1) is recorded as “equipotent”. Moreover, the “cytotoxicity against HCT 116 cells (rank)” value with HCT 116 cells is “most cytotoxic”. Further, the “cytotoxicity (in words)” value in [7] is on record as “moderate cytotoxicity in the micromolar range; also recorded: moderate cytotoxicity at micromolar range”. Consider `CCOC1C=C(CCC2(O)C(C)CC(OC(C)=O)C3C(C)(C)CCCC32C)C(=O)O1` (stereo not drawn) [Compound 94, viterotulin C], for which, in data set [8], the “inhibition rates of NF-κB activation” value is recorded as 66.09 ± 11.49. In the case of `CC(=O)OC1CC(C)C(O)(CCC2=CC(=O)OC2)C2(C)CCCC(C)(C)C12` (stereo not drawn) [Compound 95, vitexilactone D], in data set [8], the “inhibition rates of NF-κB activation” value is on record as 57.30 ± 15.70. Regarding `C[C@@H]1C[C@@H](O)C2C(C)(C)[C@@H](O[C@@H]3O[C@H](CO)[C@@H](O)[C@H](O)[C@H]3O)CC[C@]2(C)[C@@]1(O)CCC1=CCOC1=O` (stereo partly drawn) [Compound 96, (3S,5S,6S,8R,9R,10S)-3,6,9-trihydroxy-13(14)-labdean-16,15-olide-3-O-β-D-gluco-pyranoside], the “inhibitory effect on NO production (in words)” value in [9] is given as “No inhibitory activity on NO production in LPS-induced RAW 264.7 macrophages up to concentration of 100 μM”. As for `CC1=C(CCC2=CCOC2=O)[C@@]2(C)CC[C@H](O)C(C)(C)[C@@H]2CC1` [Compound 98, (3S,5R,10S)-3-hydroxy-labd-8,13-dien-16,15-olide], in data set [10], the “inhibition of LPS-induced NO production (in words)” value is on record as “strong”. Also, the IC50 in data set [10] (read-out: inhibition of NO production, IC50 value) was 15.8 µM. Further, the “inhibition of COX-2” value in the data set on COX-2 was “able to inhibit; also recorded: inhibition on iNOS, COX-2 and NF-κB signal pathways”. Moreover, the “inhibition of iNOS” value in data set [11] was “able to inhibit; also recorded: inhibition on iNOS, COX-2 and NF-κB signal pathways”. For the same molecule, in the data set on NF-κB signal pathways, the “inhibition of NF-κB signal pathways” value was “able to inhibit; also recorded: inhibition on iNOS, COX-2 and NF-κB signal pathways”. Further, in the data set on IL-6, the “inhibition of IL-6 level” value is on record as “significant inhibition”. Further, the “inhibition of IL-1β level” value in data set [12] is reported as “significant inhibition”. `CC(C)(O)C(O)CC[C@](C)(O)[C@H]1CC[C@@]2(O)C3=CC(=O)[C@@H]4C[C@@H](O)[C@@H](O)C[C@]4(C)C3CC[C@]12C` (stereo partly drawn) [Compound 103, pinnatasterone]: the “activity against Musca domestica larvae” value with Musca domestica larvae is “Exhibited weak activity against M. domestica larvae”. In the case of `CC(C)(O)CCC[C@](C)(O)C1CC[C@@]2(O)C3=CC(=O)[C@@H]4C[C@@H](O)[C@@H](O)C[C@]4(C)C3[C@H](O)C[C@]12C` (stereo partly drawn) [Compound 110, scabrasterone], the “molting activity in the Musca bioassay” value in the data set on Musca was “very weak molting activity”. Regarding `COc1cc([C@H]2c3c(cc(OC)c(O)c3OC)C=C(C=O)[C@@H]2CO)ccc1O` [Compound 128, vitexdoin F], the “DPPH radical-scavenging activity compared with ascorbic acid” value in [13] is on record as “Exhibited stronger activity than ascorbic acid using DPPH radical-scavenging assays”.

With `COc1cc(C2c3cc(O)c(O)cc3C=C(C=O)C2COC2OC(CO)C(O)C(O)C2O)ccc1O` (stereo not drawn) [Compound 129, vitexnegheteroin E], the antioxidant activity entry in data set [14] is “antioxidant”. In addition, the “inhibition of LPS-induced NO production” value in [15] is given as “inhibitory activities”. In the case of `COc1cc2c(cc1O)C(c1ccc(OC)c(OC)c1)C(CO)C(C=O)=C2` (stereo not drawn) [Compound 137, 6-hydroxy-4-(3,4-dimethoxyphenyl)-3-hydroxymethyl-7-methoxy-3,4-dihydro-2-naphthaldehyde], in [16], the “inhibitory effects on NO generation” value is on record as “minor effects of inhibitory”. As to `COc1ccc([C@H]2c3c(ccc(O)c3OC)C=C(C=O)[C@@H]2CO)cc1OC` [Compound 138, 6-hydroxy-4-(3,4-dimethoxyphenyl)-3-hydroxymethyl-5-methoxy-3,4-dihydro-2-napthaldehyde], the “inhibitory effects on NO generation” value in data set [16] is “minor effects of inhibitory”. Take `COC(=O)c1cccc(CCc2cc(=O)c3c(O)c(OC)ccc3o2)c1` [Compound 160]: the antinociceptive action entry in data set [17] was “successful in reducing nociception and inflammation; also recorded: The derivatives from V. negundo L. were able to reduce inflammation, and nociception, and could be used as a potential source of antinociceptive and anti-inflammatory candidates”. In [18], the anti-inflammatory activity entry is “successful in reducing nociception and inflammation; also recorded: The derivatives from V. negundo L. were able to reduce inflammation, and nociception, and could be used as a potential source of antinociceptive and anti-inflammatory candidates”. `COc1ccc2oc(CC(O)c3cccc(C(=O)O)c3)cc(=O)c2c1O` (stereo not drawn) [Compound 161]: the antinociceptive action result in [17] was “successful in reducing nociception and inflammation; also recorded: The derivatives from V. negundo L. were able to reduce inflammation, and nociception, and could be used as a potential source of antinociceptive and anti-inflammatory candidates”. In addition, in data set [18], the anti-inflammatory activity entry is “successful in reducing nociception and inflammation; also recorded: The derivatives from V. negundo L. were able to reduce inflammation, and nociception, and could be used as a potential source of antinociceptive and anti-inflammatory candidates”. With `CC(C(=O)O)c1ccc(-c2ccccc2)c(F)c1` (stereo not drawn) [flurbiprofen], for the setting “cyclic mastalgia, premenopausal women, V. agnus-castus fruit 40 mg”, the symptoms of mastalgia entry is “significant reduction”. The harmful effects entry (in vivo) is reported as “no harmful effects”.

In general, IC50 refers to the concentration needed to halve the response being measured.
